Assay results from patent EP3305318A1, “[6R]-5,10-METHYLENETETRAHYDROFOLATE IN 5-FLUOROURACIL BASED CHEMOTHERAPY” (Isofol Medical AB, priority 2016, dated 2018).
Where two headings read alike, the source gives them in different places.

Columns and labels:
colorectal cancer [1] = conditions: Phase IIb study; cited from earlier work
[2] = tested on: previously untreated metastatic colorectal cancer; conditions: Phase II trial; cited from earlier work
pancreas cancer = conditions: CoFactor combined with 5-FU, phase I/II; cited from earlier work
solid tumours = conditions: cited from earlier work
metastatic breast cancer = conditions: 5-FU combined with cyclophosphamide and methotrexate (CMF); cited from earlier work
[3] = tested on: advanced and recurring head and neck squamous cell cancer; conditions: 5-FU in combination therapies with platinum compounds; cited from earlier work
colorectal tumors = conditions: cited from earlier work
TS = biological target: T1, TS (Lacticaseibacillus casei, UniProt P00469); conditions: cited from earlier work
T1 sequence (P00469 1-316): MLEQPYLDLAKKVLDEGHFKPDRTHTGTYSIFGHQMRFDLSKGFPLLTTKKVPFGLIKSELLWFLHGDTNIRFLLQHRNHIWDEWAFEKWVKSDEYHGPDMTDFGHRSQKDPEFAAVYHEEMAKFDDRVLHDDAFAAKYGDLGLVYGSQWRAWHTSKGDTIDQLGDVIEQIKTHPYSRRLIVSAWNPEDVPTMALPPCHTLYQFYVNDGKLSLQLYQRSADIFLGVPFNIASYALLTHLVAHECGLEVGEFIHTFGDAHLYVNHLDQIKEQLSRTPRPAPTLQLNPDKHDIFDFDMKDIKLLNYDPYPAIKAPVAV

colorectal cancer [4] = test: 5-FU bolus followed by multiple IV boluses of [6R]-MTHF in colorectal cancer patients (Phase I/II dose cohort trial); assay type: in vivo, human; conditions: initial administration of 5-FU followed by multiple IV boluses of [6R]-MTHF, interval of about 10 min - 4 hours between each bolus
Description: As used herein, the term ORR shall refer to the Objective Response Rate, ie. the proportion of patients with reduction in tumor burden of a predefined amount. This shall be calculated as follows: ORR = Sum of partial responses plus complete responses as per RECIST 1.1 (a set of published rules that define when tumours in cancer patients progress during treatments, the responses being defined as: • Complete Response: Disappearance of all target lesions. • Partial Response: At least a 30% decrease in the sum of the diameters of target lesions, taking as reference the baseline sum diameters. (Eisenhauer EA, Therasse P, Bogaerts J, Schwartz LH, Sargent D, Ford R, et al. New response evaluation criteria in solid tumours: revised RECIST guideline (version 1.1). Eur J Cancer. 2009 Jan; 45(2):228-47)
The safety and efficacy of [6R]-5,10-methylenetetrahydrofolate is analyzed in an open-label, multiple-site, Phase I/II Dose Cohort Trial in combination with a fixed dose of 5-Fluorouracil (5-FU) alone or together with a fixed dose of Oxaliplatin or Irinotecan in patients with stage IV colorectal cancer. […]
[6R]-5,10-Methylenetetrahydrofolic acid is formulated as a lyophylised powder containing 100 mg per vial (calculated as free acid). […]

**Q.** With `Nc1nc2c(c(=O)[nH]1)N1CN(c3ccc(C(=O)N[C@@H](CCC(=O)[O-])C(=O)[O-])cc3)CC1CN2.[Ca+2]` (stereo partly shown) [CoFactor®, [6R,S]-5,10-methylene-THF Ca salt] as the molecule, how does the “efficacy or safety compared with leucovorin study arm” value (colorectal cancer [1]) read?
**A.** no significant differences

**Q.** What about the response rate [2] of the same molecule?
**A.** 35%

**Q.** And the “clinical benefit, defined as stable disease or tumor response” value (pancreas cancer)?
**A.** 40 % of patients

**Q.** With `O=c1[nH]cc(F)c(=O)[nH]1` [5-FU, 5-fluorouracil] as the molecule, how does the overall response rate (solid tumours; 5-FU alone) read?
**A.** 10-15%

**Q.** What about the OS (metastatic breast cancer) of the same molecule?
**A.** around 20 months

**Q.** What about the reponse rate (metastatic breast cancer) of the same molecule?
**A.** around 20%

**Q.** What about the Response rates [3] of the same molecule?
**A.** around 30%

**Q.** What about the survival time [3] of the same molecule?
**A.** around 6 months

**Q.** What about the response rate (colorectal tumors; 5-FU given as a monotherapy) of the same molecule?
**A.** around 10%

**Q.** Which overall response rates (solid tumours; LV added to 5-FU) does the source give for `Nc1nc2c(c(=O)[nH]1)N(C=O)C(CNc1ccc(C(=O)N[C@@H](CCC(=O)O)C(=O)O)cc1)CN2` (stereo partly shown) [LV, Leucovorin] here?
**A.** over 20%

**Q.** And the response rate (colorectal tumors; Leucovorin (LV) added to 5-FU)?
**A.** 21%

**Q.** Which “effect on the natural [6R]-isomer as co-substrate for TS” value (TS) does the source give for `Nc1nc2c(c(=O)[nH]1)N1CN(c3ccc(C(=O)N[C@@H](CCC(=O)O)C(=O)O)cc3)C[C@@H]1CN2` [(6S)-isomer] here?
**A.** partial competitive inhibitor

**Q.** With `Nc1nc2c(c(=O)[nH]1)N1CN(c3ccc(C(=O)N[C@@H](CCC(=O)O)C(=O)O)cc3)C[C@H]1CN2` [[6R]-MTHF, [6R]-5,10-methylenetetrahydrofolate] as the molecule, how does the “ORRs (objective response rates)” value (colorectal cancer [4]) read?
**A.** 50-60%
